# Measured values taken from patent US20200315996A1 (Board of Trustees, Southern Illinois University, priority 2016, published 2020).
# Columns and labels:
# endometriotic lesions = experiment: Mouse model of endometriosis, growth of implanted endometriotic lesions (Study 1); type: in vivo, mice; conditions: for lesion weight / lesion volume: 3 weeks; for lesion weight: controls 0.044±0.007 g; for lesion volume: controls 40.1±6.6 mm3; for total weight of lesions: controls 154.0±29.3 mg
# Description: An experimental mouse model of endometriosis was established adopting procedures described previously with some modification [Han, 2012; Hirata, 2005; Kulak, 2011; Pelch, 2012; Zhao, 2014]. Female, eight week old B6-GFP mice were used as donor mice. These mice are transgenic mice whose cells endogenously express a green fluorescent protein (GFP) which is detectable under fluorescent light. When implanted to a GFP-negative recipient mouse, tissue implants from GFP-positive donor mice can be distinguished from the tissues of the recipient mice. Ectopic GFP-positive lesions were microscopically examined to evaluate the implants for accurate growth and progression. Briefly, the uterine horns were removed from donor mice during the diestrus stage of the reproductive cycle. […] Then, the uterine pieces were maintained in warmed DMEM/F12 medium (#10-090, Corning). […] The recipient mice were selected during the diestrus stage and anesthetized. In each mouse, a longitudinal abdominal incision was made, and uterine pieces from donor mice were sutured to the right or left side of the peritoneal walls of each animal (implanting each 2-mm and 3-mm piece per side) using a 6-0 braided silk suture (# SUT-1073-11, Roboz). Then, the abdominal incision was closed with a 4-0 braided silk suture (# SUT-1073-31, Roboz). […] Uterine tissue pieces of B6-GFP mice (donor) were implanted into the peritoneal walls of recipient mice. […] The lesion volume was calculated according to the formula (L×W^2), where L is length and W is width [[…], 2007].
# recipient mice = experiment: General tolerability in recipient mice (Studies 1 and 2); type: in vivo
# Description: Uterine tissue pieces of B6-GFP mice (donor) were implanted into the peritoneal walls of recipient mice.
# The recipient mice continued receiving oral daily niclosamide treatments until mouse pups were born, after which niclosamide treatment was discontinued. Three weeks after the pups were born, on postnatal day (PND) 21, the recipient mice were necropsied and the pups were weaned.
# mice = conditions: cited from earlier work
# NOS2 (iNOS) = experiment: Immunohistochemistry of endometriotic lesions, NOS2; type: in vivo, mice; conditions: 3 weeks; for % of NOS2 positive cells/total cells/0.007 mm^2, Stroma: control 75.2 ± 4.6
# Description: The presence and location of different proteins in the tissues obtained from the recipient mice. Samples of uterine tissue were isolated from the recipient mice, fixed by standard histological methods, and embedded in paraffin. Thin sections (5 μm) of the paraffin-embedded tissues were screened with standard immunohistochemical methods using antibodies to identify the expression of in the uterine tissues. […] The expression of MKI67, ESR1, PGR, p-CHUK, p-STAT3, NOS2 and PTGS2 proteins in uterine tissues, as determined by immunohistochemical analysis of uterine tissue sections, was semiquantitatively analyzed. Levels of apoptosis were analyzed by TUNEL assay and also semiquantitatively analyzed. […] Histological sections were obtained from 4 different lesions. For each section, three different areas measuring 0.007 mm^2 were chosen. In each of those areas, the total number of epithelial or stromal cells was counted, as was the number of cells that tested positive for expressing MKI67 (a marker of cellular proliferation), steroid receptors ESR1 and PGR, and inflammatory signaling molecules p-CHUK, p-STAT3, NOS2 and PTGS2 proteins.
# ESR1 = experiment: Immunohistochemistry of endometriotic lesions, ESR1; type: in vivo, mice; conditions: 3 weeks; for % of ESR1 positive cells/total cells/0.007 mm^2, Stroma: control 45.6 ± 6.9; for % of ESR1 positive cells/total cells/0.007 mm^2, Epithelium: control 79.1 ± 3.7
# Description: The presence and location of different proteins in the tissues obtained from the recipient mice. Samples of uterine tissue were isolated from the recipient mice, fixed by standard histological methods, and embedded in paraffin. Thin sections (5 μm) of the paraffin-embedded tissues were screened with standard immunohistochemical methods using antibodies to identify the expression of in the uterine tissues.
# Primary antibodies that recognized MKI67 (Ki67), PECAM1 (CD31), ESR1, PGR, p-CHUK (IKK), p-STAT3, NOS2 (iNOS) and PTGS2 (COX2), and Vectastain Elite ABC Kit (# PK-6101), Mouse on Mouse Basic Kit (# BMK-2202, Vector laboratories) or DyLight-conjugated secondary antibody (#711-516-152, Jackson ImmunoResearch Lab) were used to show the presence of the proteins in the tissues, which were examined under microscopes.
# The primary antibodies used in these analyses were: anti-MKI67 (Ki67, 1:200 dilution, 550609, BD Biosciences), anti-PECAM1 (CD31, 1:100 dilution, ab28364, Abcam), anti-ESR1 (1:100 dilution, sc-542, Santa Cruz Biotechnology), anti-PGR (1:200 dilution, RB-9017-P0, Thermo Scientific), anti-p-CHUK (IKK, 1:150 dilution, 2697, Cell Signaling Technology), anti-p-STAT3 (1:50 dilution, 9145, Cell Signaling Technology), anti-NOS2 (iNOS, 1:50 dilution, 610333, BD Biosciences) and anti-PTGS2 (COX2, 1:50 dilution, RM-9121, Thermo Scientific).
# The expression of MKI67, ESR1, PGR, p-CHUK, p-STAT3, NOS2 and PTGS2 proteins in uterine tissues, as determined by immunohistochemical analysis of uterine tissue sections, was semiquantitatively analyzed. Levels of apoptosis were analyzed by TUNEL assay and also semiquantitatively analyzed. Histological sections were obtained from 4 different lesions. For each section, three different areas measuring 0.007 mm^2 were chosen. In each of those areas, the total number of epithelial or stromal cells was counted, as was the number of cells that tested positive for expressing MKI67 (a marker of cellular proliferation), steroid receptors ESR1 and PGR, and inflammatory signaling molecules p-CHUK, p-STAT3, NOS2 and PTGS2 proteins.
# [1] = after 3 weeks of treatment, 100 or 200 mg/kg b.w./day oral
smiles,measurement,setting,value
"O=C(Nc1ccc([N+](=O)[O-])cc1Cl)c1cc(Cl)ccc1O [niclosamide, 5-chloro-N-(2-chloro-4-nitrophenyl)-2-hydroxybenzamide]",lesion weight,endometriotic lesions; 100 mg/kg b.w./day oral,0.023 ± 0.004 g
same,lesion volume,"endometriotic lesions; 100 mg/kg b.w./day oral, no significant difference",23.15±5.0 mm3
same,lesion weight,endometriotic lesions; 200 mg/kg b.w./day oral,0.016 ± 0.003 g
same,lesion volume,endometriotic lesions; 200 mg/kg b.w./day oral,7.4±0.8 mm3
same,number of lesions between treatment groups,"endometriotic lesions; oral 50, 100 or 200 mg/kg b.w. vs controls",did not differ
same,total weight of lesions,"endometriotic lesions; oral niclosamide 50 mg/kg b.w., n=7",114.9 ± 31.6 mg
same,total weight of lesions,"endometriotic lesions; oral niclosamide 100 mg/kg b.w., n=9",76.2 ± 18.3 mg
same,total weight of lesions,"endometriotic lesions; oral niclosamide 200 mg/kg b.w., n=20",44.9 ± 7.43 mg
same,adverse effects including weight loss in recipient mice,recipient mice; [1],no obvious adverse effects
same,estrous cyclicity by vaginal cytology,recipient mice; [1],observed in all mice
same,"adverse reactions, such as weight loss or changes in behavior in the recipient mice",recipient mice; daily 200 mg/kg b.w. for three (Study 1) to four weeks (Study 2),did not cause any adverse reactions
same,"LD50, acute toxicity",mice,> 1500 mg/kg b.w.
same,"% of NOS2 positive cells/total cells/0.007 mm^2, Stroma",NOS2 (iNOS); 100 mg/kg b.w./day oral,57.8 ± 4.3%
same,"% of NOS2 positive cells/total cells/0.007 mm^2, Epithelium","NOS2 (iNOS); 100 mg/kg b.w./day oral, control 99.5 ± 0.4",99.5 ± 0.5%
same,"% of NOS2 positive cells/total cells/0.007 mm^2, Stroma",NOS2 (iNOS); 200 mg/kg b.w./day oral,61.9 ± 5.7%
same,"% of NOS2 positive cells/total cells/0.007 mm^2, Epithelium","NOS2 (iNOS); 200 mg/kg b.w./day oral, control 99.5 ± 0.4, p < 0.05",86.2 ± 5.9 %
same,"% of ESR1 positive cells/total cells/0.007 mm^2, Stroma",ESR1; 100 mg/kg b.w./day oral,55.9 ± 5.5%
same,"% of ESR1 positive cells/total cells/0.007 mm^2, Epithelium",ESR1; 100 mg/kg b.w./day oral,96.6 ± 2.0%
same,"% of ESR1 positive cells/total cells/0.007 mm^2, Stroma",ESR1; 200 mg/kg b.w./day oral,37.7 ± 5.7%
same,"% of ESR1 positive cells/total cells/0.007 mm^2, Epithelium",ESR1; 200 mg/kg b.w./day oral,82.6 ± 5.6%
